Assay: Inhibition of influenza A virus (A/Perth/16/2009(H3N2)) neuraminidase using MUNANA substrate pre-incubated for 30 mins before substrate addition by fluorometric assay

SMILES | IC50 [µM]
O=c1cc(-c2ccc(O)c(O)c2)oc2cc(O[C@@H]3O[C@H](CO)[C@@H](O)[C@H](O)[C@H]3O)cc(O)c12 | 51.2
C[C@@H]1O[C@@H](Oc2c(-c3ccc(O)c(O)c3)oc3cc(O)cc(O)c3c2=O)[C@H](O)[C@H](O)[C@H]1O [CHEBI:17558] | 121
O=c1cc(O)cc2oc(-c3ccc(O)c(O)c3)c(O[C@@H]3O[C@H](CO)[C@H](O)[C@H](O)[C@H]3O)c(O)c1-2 [2-(3,4-Dihydroxy-phenyl)-5,7-dihydroxy-3-((2S,4R,5R)-3,4,5-trihydroxy-6-hydroxymethyl-tetrahydro-pyran-2-yloxy)-chromen-4-one] | 85.5
O=c1c(O)c(-c2ccc(O)cc2)oc2cc(O)cc(O)c12 | 42.2
O=c1cc(O)cc2oc(-c3ccc(O)c(O)c3)c(O[C@@H]3O[C@H](CO)[C@@H](O)[C@H](O)[C@H]3O)c(O)c1-2 [Quercetin 3-O-beta-D-glucoside] | 477
